From ChEMBL document CHEMBL1149753, “Two new alkaloids from Xestospongia sp., a New Caledonian sponge” (1992)
Values after ≈ are worked out from the molar mass of the structure shown. Active and inactive are the calls of the source. The calls are words filed in the database; no cut-off is given here.

How the values were obtained:
[1] = system: KB; assay: Cytotoxicity against human KB cells; assay type: functional; conditions: for EC50: read-out: ED50 (the source's name)
[2] = system: P388; assay: In vivo antitumor activity against mouse P388 cells; assay type: functional, organism-based
[3] = system: L1210; assay: Cytotoxicity against mouse L1210 cells; assay type: functional; conditions: for EC50: read-out: ED50 (the source's name)

Structure (SMILES)	EC50 [1]	Activity [2]	EC50 [3]	ED50 [1]	ED50 [3]
O[C@@]12CCCCCC[C@H]3CCN4CCC[C@@H](CCCCCC[C@H]5CCN(CCC1)[C@@H]2O5)[C@H]4O3 [DEMETHYLXESTOSPONGIN B]	2.5 mg/L (≈ 5.4 µM)	inactive	0.8 mg/L (≈ 1.73 µM)		
CN(C)CC1NCCc2c1[nH]c1ccccc21 (stereo unspecified)				inactive	inactive
C[C@@H]1CN2CCC[C@H]3CCCCCC[C@H]4CCN5CCC[C@@](O)(CCCCCC[C@@H]1O[C@H]32)[C@H]5O4 [XESTOSPONGIN B]	2.5 mg/L (≈ 5.24 µM)	inactive	2 mg/L (≈ 4.2 µM)		
O[C@@]12CCCCCC[C@H]3CCN4CCC[C@H](CCCCCC[C@H]5CCN(CCC1)[C@@H]2O5)[C@H]4O3 [XESTOSPONGIN D]	2 mg/L (≈ 4.32 µM)	inactive	0.2 mg/L (≈ 0.432 µM)		
